By inhibition is commonly meant the change of the read-out against control, counted positive when it falls.

The values below come from PMC3639963, “A New Class of Small Molecule Inhibitor of BMP Signaling” (PLoS ONE, 2013).

What all share (assay): Nanosyn kinase profiling
Holding throughout (format): biochemical
What all share (details): read-out: Percentage inhibition; for inhibition at 0.1 µM: 0.1 µM inhibitor; for inhibition at 1 µM: 1 µM inhibitor

For one assay, the target named is T1, LCK (Homo sapiens, UniProt P06239).
T1 construct: purchased Nanosyn (enzymatic panel); SGC in-house recombinant human kinases (DSF panel); Invitrogen (ALK1-6)
The procedure, abridged:
(§1)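 Percent inhibition of each kinase was measured with the inhibitor at 0.1 µM and at 1 µM, as part of a 200-kinase human selectivity panel.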

A further assay has as its target T2, MST1 (Homo sapiens, UniProt Q13043).
T2 construct: purchased Nanosyn (enzymatic panel); SGC in-house recombinant human kinases (DSF panel); Invitrogen (ALK1-6)
T2 sequence (Q13043 1-487): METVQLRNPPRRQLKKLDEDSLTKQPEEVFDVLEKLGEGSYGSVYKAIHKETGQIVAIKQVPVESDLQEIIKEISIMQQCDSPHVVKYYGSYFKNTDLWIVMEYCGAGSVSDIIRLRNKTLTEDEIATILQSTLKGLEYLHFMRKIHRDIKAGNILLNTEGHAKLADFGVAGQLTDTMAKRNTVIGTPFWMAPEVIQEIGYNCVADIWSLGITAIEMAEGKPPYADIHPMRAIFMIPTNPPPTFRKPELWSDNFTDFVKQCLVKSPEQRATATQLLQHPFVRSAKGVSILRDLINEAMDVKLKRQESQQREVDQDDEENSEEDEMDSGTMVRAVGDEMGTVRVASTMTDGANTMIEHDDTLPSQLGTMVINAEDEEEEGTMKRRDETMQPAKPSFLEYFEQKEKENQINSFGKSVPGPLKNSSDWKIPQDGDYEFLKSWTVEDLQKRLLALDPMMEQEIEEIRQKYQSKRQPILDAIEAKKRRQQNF
The procedure, abridged:
as §1

For a further assay, the target named is T3, MNK2 (Homo sapiens, UniProt Q9HBH9).
T3 construct: purchased Nanosyn (enzymatic panel); SGC in-house recombinant human kinases (DSF panel); Invitrogen (ALK1-6)
A digest of the protocol: as §1

For the next assay, the target named is T4, TSSK2 (Homo sapiens, UniProt Q96PF2).
T4 construct: purchased Nanosyn (enzymatic panel); SGC in-house recombinant human kinases (DSF panel); Invitrogen (ALK1-6)
T4 sequence (Q96PF2 1-358): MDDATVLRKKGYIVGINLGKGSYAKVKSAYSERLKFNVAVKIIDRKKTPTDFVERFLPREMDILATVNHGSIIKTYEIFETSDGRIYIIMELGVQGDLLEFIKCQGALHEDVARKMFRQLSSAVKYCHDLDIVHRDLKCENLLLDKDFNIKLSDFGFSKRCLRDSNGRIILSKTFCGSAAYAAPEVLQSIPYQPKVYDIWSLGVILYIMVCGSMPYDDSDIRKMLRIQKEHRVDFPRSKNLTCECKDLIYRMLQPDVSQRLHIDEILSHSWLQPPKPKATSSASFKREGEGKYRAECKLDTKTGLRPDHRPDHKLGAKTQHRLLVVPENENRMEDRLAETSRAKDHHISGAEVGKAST
A digest of the protocol: as §1

Another assay has as its target T5, RET (Homo sapiens, UniProt P07949).
T5 construct: purchased Nanosyn (enzymatic panel); SGC in-house recombinant human kinases (DSF panel); Invitrogen (ALK1-6)
A digest of the protocol: as §1

In another assay the target is T6, IKK-ε (Homo sapiens, UniProt Q14164).
T6 construct: purchased Nanosyn (enzymatic panel); SGC in-house recombinant human kinases (DSF panel); Invitrogen (ALK1-6)
T6 sequence (Q14164 1-716): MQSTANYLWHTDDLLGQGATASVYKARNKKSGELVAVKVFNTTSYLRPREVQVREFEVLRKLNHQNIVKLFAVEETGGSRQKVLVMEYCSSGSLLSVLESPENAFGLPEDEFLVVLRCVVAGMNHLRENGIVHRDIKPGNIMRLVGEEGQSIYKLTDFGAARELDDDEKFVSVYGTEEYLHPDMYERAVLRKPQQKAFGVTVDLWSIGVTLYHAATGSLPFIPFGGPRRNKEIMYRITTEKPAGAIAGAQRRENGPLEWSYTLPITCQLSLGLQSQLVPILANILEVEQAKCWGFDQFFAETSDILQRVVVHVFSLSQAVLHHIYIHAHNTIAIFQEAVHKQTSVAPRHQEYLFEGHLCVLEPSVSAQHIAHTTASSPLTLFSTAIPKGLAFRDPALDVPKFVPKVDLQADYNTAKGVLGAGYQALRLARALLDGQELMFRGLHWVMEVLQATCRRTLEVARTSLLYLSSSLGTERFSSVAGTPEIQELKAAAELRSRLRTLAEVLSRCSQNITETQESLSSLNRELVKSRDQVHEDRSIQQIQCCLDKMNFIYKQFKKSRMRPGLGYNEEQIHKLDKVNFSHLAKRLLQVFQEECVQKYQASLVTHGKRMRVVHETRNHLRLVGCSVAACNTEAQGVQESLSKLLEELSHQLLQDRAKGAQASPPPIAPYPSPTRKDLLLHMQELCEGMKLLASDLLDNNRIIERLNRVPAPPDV
A digest of the protocol: as §1

For another assay, the target named is T7, JNK2 (Homo sapiens, UniProt P45984).
T7 construct: purchased Nanosyn (enzymatic panel); SGC in-house recombinant human kinases (DSF panel); Invitrogen (ALK1-6)
The procedure, abridged:
as §1

A further assay deals with T8, MAPKAPK2 (Homo sapiens, UniProt P49137).
T8 construct: purchased Nanosyn (enzymatic panel); SGC in-house recombinant human kinases (DSF panel); Invitrogen (ALK1-6)
The procedure, abridged: as §1

In a further assay the target is T9, MARK1 (Homo sapiens, UniProt Q9P0L2).
T9 construct: purchased Nanosyn (enzymatic panel); SGC in-house recombinant human kinases (DSF panel); Invitrogen (ALK1-6)
The procedure, abridged:
as §1

In another assay the target is T10, FGR (Homo sapiens, UniProt P09769).
T10 construct: purchased Nanosyn (enzymatic panel); SGC in-house recombinant human kinases (DSF panel); Invitrogen (ALK1-6)
A digest of the protocol:
as §1

The structures appear in SMILES notation.

T5 sequence (P07949 29-1114): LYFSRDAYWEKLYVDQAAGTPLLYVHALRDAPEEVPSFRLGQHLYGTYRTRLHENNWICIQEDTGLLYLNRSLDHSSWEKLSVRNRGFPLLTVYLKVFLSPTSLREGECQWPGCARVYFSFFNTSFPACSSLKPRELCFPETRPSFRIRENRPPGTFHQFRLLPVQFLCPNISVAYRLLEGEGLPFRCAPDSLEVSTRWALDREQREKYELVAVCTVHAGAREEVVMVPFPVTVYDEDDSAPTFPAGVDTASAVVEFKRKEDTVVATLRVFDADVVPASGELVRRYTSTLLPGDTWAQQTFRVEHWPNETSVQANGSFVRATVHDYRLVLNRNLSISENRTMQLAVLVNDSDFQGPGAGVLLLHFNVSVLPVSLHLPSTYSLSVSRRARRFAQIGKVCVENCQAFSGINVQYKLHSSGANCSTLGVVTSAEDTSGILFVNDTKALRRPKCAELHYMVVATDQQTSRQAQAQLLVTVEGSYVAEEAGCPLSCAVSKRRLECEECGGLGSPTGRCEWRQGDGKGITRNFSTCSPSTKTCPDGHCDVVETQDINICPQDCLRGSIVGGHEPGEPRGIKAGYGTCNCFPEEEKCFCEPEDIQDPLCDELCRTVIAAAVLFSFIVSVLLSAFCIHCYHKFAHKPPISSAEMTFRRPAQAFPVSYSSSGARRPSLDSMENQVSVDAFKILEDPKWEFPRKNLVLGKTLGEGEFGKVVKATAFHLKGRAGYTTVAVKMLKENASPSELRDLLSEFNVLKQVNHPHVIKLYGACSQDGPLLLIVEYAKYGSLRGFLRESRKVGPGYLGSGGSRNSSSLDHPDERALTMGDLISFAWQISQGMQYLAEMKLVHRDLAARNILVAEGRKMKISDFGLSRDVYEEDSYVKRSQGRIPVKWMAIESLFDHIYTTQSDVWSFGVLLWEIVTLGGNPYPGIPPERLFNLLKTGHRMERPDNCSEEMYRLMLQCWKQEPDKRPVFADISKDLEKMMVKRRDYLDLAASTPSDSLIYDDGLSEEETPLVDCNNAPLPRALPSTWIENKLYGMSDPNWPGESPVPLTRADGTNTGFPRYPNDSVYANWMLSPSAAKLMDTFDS
T8 sequence (P49137 whole entry): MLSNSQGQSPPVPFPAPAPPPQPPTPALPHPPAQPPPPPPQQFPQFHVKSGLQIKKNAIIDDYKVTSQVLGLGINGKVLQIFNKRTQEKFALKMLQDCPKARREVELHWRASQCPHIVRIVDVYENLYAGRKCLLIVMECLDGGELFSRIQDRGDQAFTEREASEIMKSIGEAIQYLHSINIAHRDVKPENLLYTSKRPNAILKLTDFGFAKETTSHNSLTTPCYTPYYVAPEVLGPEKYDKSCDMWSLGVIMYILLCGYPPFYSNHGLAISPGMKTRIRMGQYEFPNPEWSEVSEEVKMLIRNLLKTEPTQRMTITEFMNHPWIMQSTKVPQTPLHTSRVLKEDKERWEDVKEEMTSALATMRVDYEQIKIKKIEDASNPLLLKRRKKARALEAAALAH
T7 sequence (P45984 whole entry): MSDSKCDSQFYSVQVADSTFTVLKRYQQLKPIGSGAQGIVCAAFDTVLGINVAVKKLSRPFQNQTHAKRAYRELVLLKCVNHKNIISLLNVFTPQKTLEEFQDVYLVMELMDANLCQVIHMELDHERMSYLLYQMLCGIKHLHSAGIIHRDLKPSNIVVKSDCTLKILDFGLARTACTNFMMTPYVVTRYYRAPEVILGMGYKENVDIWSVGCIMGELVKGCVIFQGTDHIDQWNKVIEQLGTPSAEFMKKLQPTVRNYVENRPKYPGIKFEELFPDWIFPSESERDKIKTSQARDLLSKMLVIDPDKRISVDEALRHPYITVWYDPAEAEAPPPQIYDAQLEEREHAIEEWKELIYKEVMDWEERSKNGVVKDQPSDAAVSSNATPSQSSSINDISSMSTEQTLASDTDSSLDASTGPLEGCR
T9 sequence (Q9P0L2 whole entry): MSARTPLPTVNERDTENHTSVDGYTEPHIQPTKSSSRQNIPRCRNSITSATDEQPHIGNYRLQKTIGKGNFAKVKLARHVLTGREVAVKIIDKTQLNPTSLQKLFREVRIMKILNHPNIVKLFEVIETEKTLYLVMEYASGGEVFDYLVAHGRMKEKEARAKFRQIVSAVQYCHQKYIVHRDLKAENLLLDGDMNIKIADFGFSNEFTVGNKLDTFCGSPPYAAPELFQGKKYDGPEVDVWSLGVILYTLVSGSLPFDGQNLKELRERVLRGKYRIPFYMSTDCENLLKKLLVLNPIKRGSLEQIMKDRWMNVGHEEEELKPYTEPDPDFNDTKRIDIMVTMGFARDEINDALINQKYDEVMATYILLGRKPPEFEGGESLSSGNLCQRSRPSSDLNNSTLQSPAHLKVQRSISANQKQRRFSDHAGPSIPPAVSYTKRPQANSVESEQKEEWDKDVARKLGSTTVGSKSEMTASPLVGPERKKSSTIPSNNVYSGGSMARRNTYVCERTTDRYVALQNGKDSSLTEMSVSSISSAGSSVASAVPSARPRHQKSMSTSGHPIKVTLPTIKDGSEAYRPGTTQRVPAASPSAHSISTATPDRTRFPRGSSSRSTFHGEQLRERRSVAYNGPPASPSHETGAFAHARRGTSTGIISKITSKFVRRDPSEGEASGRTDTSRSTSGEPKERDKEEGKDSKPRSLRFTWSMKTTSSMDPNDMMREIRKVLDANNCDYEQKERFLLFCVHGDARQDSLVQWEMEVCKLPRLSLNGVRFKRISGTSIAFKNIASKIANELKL
T3 sequence (Q9HBH9 whole entry): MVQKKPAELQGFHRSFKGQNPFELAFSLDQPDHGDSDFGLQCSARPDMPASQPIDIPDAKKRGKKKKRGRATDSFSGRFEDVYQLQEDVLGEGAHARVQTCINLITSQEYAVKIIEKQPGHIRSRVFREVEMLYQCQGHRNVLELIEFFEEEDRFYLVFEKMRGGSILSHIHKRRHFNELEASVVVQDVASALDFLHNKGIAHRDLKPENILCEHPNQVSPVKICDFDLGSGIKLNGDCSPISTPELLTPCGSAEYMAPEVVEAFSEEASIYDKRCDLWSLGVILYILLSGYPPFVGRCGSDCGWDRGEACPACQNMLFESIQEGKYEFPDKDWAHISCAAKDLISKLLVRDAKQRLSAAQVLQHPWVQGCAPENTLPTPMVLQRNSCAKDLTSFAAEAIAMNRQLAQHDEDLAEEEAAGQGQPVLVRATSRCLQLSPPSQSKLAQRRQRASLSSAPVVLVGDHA
T1 sequence (P06239 whole entry): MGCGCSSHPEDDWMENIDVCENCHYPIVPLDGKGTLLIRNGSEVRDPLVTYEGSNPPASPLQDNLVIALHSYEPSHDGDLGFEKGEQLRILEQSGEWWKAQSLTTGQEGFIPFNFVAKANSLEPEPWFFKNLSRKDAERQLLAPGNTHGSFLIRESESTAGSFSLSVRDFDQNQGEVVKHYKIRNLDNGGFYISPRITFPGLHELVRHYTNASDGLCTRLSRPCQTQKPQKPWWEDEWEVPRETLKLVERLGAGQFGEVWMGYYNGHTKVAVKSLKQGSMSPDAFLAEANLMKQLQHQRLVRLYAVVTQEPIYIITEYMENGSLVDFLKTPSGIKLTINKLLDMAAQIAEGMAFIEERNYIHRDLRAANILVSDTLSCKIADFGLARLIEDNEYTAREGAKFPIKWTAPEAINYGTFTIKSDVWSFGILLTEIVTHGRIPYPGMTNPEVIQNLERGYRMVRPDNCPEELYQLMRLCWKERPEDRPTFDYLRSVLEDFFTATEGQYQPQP
T10 sequence (P09769 whole entry): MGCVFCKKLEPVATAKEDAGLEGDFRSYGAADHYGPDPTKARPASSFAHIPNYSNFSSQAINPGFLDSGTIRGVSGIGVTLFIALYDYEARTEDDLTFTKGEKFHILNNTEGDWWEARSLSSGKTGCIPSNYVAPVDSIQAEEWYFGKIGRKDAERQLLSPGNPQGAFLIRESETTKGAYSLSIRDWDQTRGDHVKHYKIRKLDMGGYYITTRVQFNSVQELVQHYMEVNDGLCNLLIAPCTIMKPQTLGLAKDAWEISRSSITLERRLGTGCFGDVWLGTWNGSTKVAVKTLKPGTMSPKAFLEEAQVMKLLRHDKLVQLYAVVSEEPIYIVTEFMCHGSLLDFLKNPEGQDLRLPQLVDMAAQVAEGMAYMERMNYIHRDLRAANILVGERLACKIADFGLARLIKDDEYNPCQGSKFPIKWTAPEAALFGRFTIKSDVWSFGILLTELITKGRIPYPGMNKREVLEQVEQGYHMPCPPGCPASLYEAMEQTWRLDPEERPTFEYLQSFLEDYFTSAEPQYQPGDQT

For `COc1cc(-c2cc(-c3cccc(O)c3)cnc2N)cc(OC)c1OC` [K02288, 3-[6-amino-5-(3,4,5-trimethoxy-phenyl)-pyridin-3-yl]-phenol], the inhibition at 0.1 µM on LCK was 13%; at MST1, -1%; at MNK2 it was 1.9%; at TSSK2, -1%; at RET, 2.1%; on IKK-ε, -6%. Besides, the inhibition at 0.1 µM at JNK2 is 0.9%; at MAPKAPK2, -2%; at MARK1 it was 1.3%; on FGR, 6.7%. The inhibition at 1 µM at LCK is 58%; at MST1, 1.1%; at MNK2, 3.2%; on TSSK2, -3%; at RET it was 3.9%; on IKK-ε, -2%. The inhibition at 1 µM was 0% on JNK2, -1% at MAPKAPK2, 4.5% at MARK1 and 37% on FGR.

In the case of `c1ccc2c(-c3cnn4cc(-c5ccc(N6CCNCC6)cc5)cnc34)ccnc2c1` [LDN-193189], the inhibition at 0.1 µM at LCK is 12%; at MST1, 4%; on MNK2 it was 3.7%; at TSSK2, 0%; on RET it was 4%; at IKK-ε, 7.5%. The inhibition at 0.1 µM at JNK2 is 3.9%; on MAPKAPK2, 0.7%; on MARK1, 13%; on FGR, 13%. Besides, the inhibition at 1 µM amounted to 46% on LCK; 7.9% at MST1; 31% on MNK2; 0.5% at TSSK2; 16% on RET; 7.4% at IKK-ε. Moreover, the inhibition at 1 µM on JNK2 is 1.3%; on MAPKAPK2 it was 0%; on MARK1 it was 62%; at FGR, 53%.
